The results in this text go back to patent publication US10696707B2, “Polyene macrolide derivative” (Shionogi & Co., Ltd., priority 2014, dated 2020).

Holding throughout (assay type): cell-based
One assay relates to A. fumigatus ATCC204305. Description: Antifungal activity test, MIC by broth microdilution (CLSI M38-A2). The following applies: A. fumigatus ATCC204305; broth microdilution, 35° C., 24-48 hours, 100% inhibition. How it is done:
(§1) The Minimum Inhibitory Concentration (MIC) values of the present compound against yeast and filamentous fungi were determined by broth microdilution assay according to the Clinical Laboratory Standards Institute (CLSI) guidelines outlined in documents M27-A3 and M38-A2. The medium used in the assay consisted of RPMI1640 (with glutamine, without bicarbonate) with 2% glucose and 0.165 mol/L morpholinepropanesulfonic acid (MOPS) with pH adjusted to 7.0 using 1 mol/L sodium hydroxide. The present compound was dissolved in dimethyl sulfoxide (DMSO). A series of two-fold dilutions were prepared in DMSO, and then 2 μL of the diluted compound was added to each well in 96-well sterile plates. Each inoculum was prepared by diluting a suspension of Candida spp. or a conidia suspension of Aspergillus spp. suspended in sterile saline solution, and then 200 μL was added to each well to a predetermined concentration using RPMI/MOPS (final concentration for each solution: approximately 1×10^3 cells/mL and approximately 1×10^4 CFU/mL). Plates of Candida spp. and Aspergillus spp. were incubated at 35° C. for 24-48 hours. The MIC was defined as the lowest concentration giving 100% inhibition compared to the growth control.
In general terms: Broth dilution looks for growth in wells or tubes with falling amounts of substance.

The subject of a further assay is A. flavus ATCC204304. The assay is described as above. As to conditions: A. flavus ATCC204304; broth microdilution, 35° C., 24-48 hours, 100% inhibition. How it is done: as §1
A further assay deals with C. albicans ATCC90028. Description: Antifungal activity test, MIC by broth microdilution (CLSI M27-A3). As to conditions: C. albicans ATCC90028; broth microdilution, 35° C., 24-48 hours, 100% inhibition. How it is done:
as §1

Usually MIC stands for the lowest concentration that inhibits growth of the organism. Read a high MIC as a less susceptible organism.

Molecules are shown by their SMILES. Converted amounts (≈) assume the structure as drawn.

With `C[C@@H]1[C@H](O)[C@@H](C)/C=C/C=C/C=C/C=C/C=C/C=C/C=C/[C@H](O[C@@H]2O[C@H](C)[C@@H](O)[C@H](N)[C@@H]2O)C[C@@H]2O[C@](O)(C[C@@H](O)C[C@@H](O)[C@H](O)CC[C@@H](O)C[C@@H](O)CC(=O)O[C@H]1C)C[C@H](O)[C@H]2NC(=O)NC[C@@H](O)CO` [I-119], the figures for the MIC with A. fumigatus ATCC204305, in the assay on A. flavus ATCC204304 and in the assay with C. albicans ATCC90028 were 1 µg/mL (≈ 0.988 µM), 0.5 µg/mL (≈ 0.494 µM) and 0.25 µg/mL (≈ 0.247 µM), respectively.
In the same order, the values of `C[C@@H]1[C@H](O)[C@@H](C)/C=C/C=C/C=C/C=C/C=C/C=C/C=C/[C@H](O[C@@H]2O[C@H](C)[C@@H](O)[C@H](N)[C@@H]2O)C[C@@H]2O[C@](O)(C[C@@H](O)C[C@@H](O)[C@H](O)CC[C@@H](O)C[C@@H](O)CC(=O)O[C@H]1C)C[C@H](O)[C@H]2NC(=O)NCC(=O)NC(CO)CO` [I-155] are 1 µg/mL (≈ 0.935 µM), 0.5 µg/mL (≈ 0.468 µM) and 0.5 µg/mL (≈ 0.468 µM).
For `C[C@@H]1[C@H](O)[C@@H](C)/C=C/C=C/C=C/C=C/C=C/C=C/C=C/[C@H](O[C@@H]2O[C@H](C)[C@@H](O)[C@H](N)[C@@H]2O)C[C@@H]2O[C@](O)(C[C@@H](O)C[C@@H](O)[C@H](O)CC[C@@H](O)C[C@@H](O)CC(=O)O[C@H]1C)C[C@H](O)[C@H]2NC(=O)NCC(=O)NCC#N` [I-157], the figures for the MIC in the assay on A. fumigatus ATCC204305, with A. flavus ATCC204304 and in the assay with C. albicans ATCC90028 were 1 µg/mL (≈ 0.967 µM), 0.5 µg/mL (≈ 0.483 µM) and 0.5 µg/mL (≈ 0.483 µM), respectively.
For `C[C@@H]1[C@H](O)[C@@H](C)/C=C/C=C/C=C/C=C/C=C/C=C/C=C/[C@H](O[C@@H]2O[C@H](C)[C@@H](O)[C@H](N)[C@@H]2O)C[C@@H]2O[C@](O)(C[C@@H](O)C[C@@H](O)[C@H](O)CC[C@@H](O)C[C@@H](O)CC(=O)O[C@H]1C)C[C@H](O)[C@H]2NC(=O)NCC1CN(CCO)C1` [I-158], the MIC in the assay on A. fumigatus ATCC204305 stood at 1 µg/mL (≈ 0.951 µM); against A. flavus ATCC204304, 1 µg/mL (≈ 0.951 µM); against C. albicans ATCC90028, 0.25 µg/mL (≈ 0.238 µM).
In the case of `C[C@@H]1[C@H](O)[C@@H](C)/C=C/C=C/C=C/C=C/C=C/C=C/C=C/[C@H](O[C@@H]2O[C@H](C)[C@@H](O)[C@H](N)[C@@H]2O)C[C@@H]2O[C@](O)(C[C@@H](O)C[C@@H](O)[C@H](O)CC[C@@H](O)C[C@@H](O)CC(=O)O[C@H]1C)C[C@H](O)[C@H]2NC(=O)NCC1CN(C)C1` [I-159], the results for the MIC in the assay with A. fumigatus ATCC204305, in the assay on A. flavus ATCC204304 and with C. albicans ATCC90028 were 1 µg/mL (≈ 0.979 µM), 0.5 µg/mL (≈ 0.49 µM) and 0.25 µg/mL (≈ 0.245 µM), respectively.
In the same order, the values of `C[C@@H]1[C@H](O)[C@@H](C)/C=C/C=C/C=C/C=C/C=C/C=C/C=C/[C@H](O[C@@H]2O[C@H](C)[C@@H](O)[C@H](N)[C@@H]2O)C[C@@H]2O[C@](O)(C[C@@H](O)C[C@@H](O)[C@H](O)CC[C@@H](O)C[C@@H](O)CC(=O)O[C@H]1C)C[C@H](O)[C@H]2NC(=O)NC[C@H](N)CO` [I-162] are 1 µg/mL (≈ 0.989 µM), 1 µg/mL (≈ 0.989 µM) and 0.25 µg/mL (≈ 0.247 µM).
The corresponding values for `CC1C=CC=CC=CC=CC=CC=CC=CC(OC2OC(C)C(O)C(N)C2O)CC2OC(O)(CC(O)CC(O)C(O)CCC(O)CC(O)CC(=O)OC(C)C(C)C1O)CC(O)C2NC(=O)NCC(N)CCO` (stereo not drawn) [I-163] are 1 µg/mL (≈ 0.975 µM), 1 µg/mL (≈ 0.975 µM) and 0.25 µg/mL (≈ 0.244 µM).
The corresponding values for `C[C@@H]1[C@H](O)[C@@H](C)/C=C/C=C/C=C/C=C/C=C/C=C/C=C/[C@H](O[C@@H]2O[C@H](C)[C@@H](O)[C@H](N)[C@@H]2O)C[C@@H]2O[C@](O)(C[C@@H](O)C[C@@H](O)[C@H](O)CC[C@@H](O)C[C@@H](O)CC(=O)O[C@H]1C)C[C@H](O)[C@H]2NC(=O)NC1CN(CCO)C1` [I-165] are 1 µg/mL (≈ 0.964 µM), 1 µg/mL (≈ 0.964 µM) and 0.25 µg/mL (≈ 0.241 µM).
As to `C[C@@H]1[C@H](O)[C@@H](C)/C=C/C=C/C=C/C=C/C=C/C=C/C=C/[C@H](O[C@@H]2O[C@H](C)[C@@H](O)[C@H](N)[C@@H]2O)C[C@@H]2O[C@](O)(C[C@@H](O)C[C@@H](O)[C@H](O)CC[C@@H](O)C[C@@H](O)CC(=O)O[C@H]1C)C[C@H](O)[C@H]2NC(=O)N1CC(O)C1` [I-166], the MIC with A. fumigatus ATCC204305 came to 1 µg/mL (≈ 1.01 µM); against A. flavus ATCC204304 it was 0.5 µg/mL (≈ 0.503 µM); in the assay on C. albicans ATCC90028 it was 0.25 µg/mL (≈ 0.251 µM).
